{"source": "patent US20240180999A1", "about": "“EZRIN PEPTIDE 1 FOR USE IN A METHOD OF TREATING POST COVID-19” (priority 2021, published 2024)", "key": {"LONG-COVID-19 symptoms": {"system": "LONG-COVID-19 symptoms", "test": "Treatment of patients suffering from post-COVID-19 syndrome (long COVID) with daily s.c. injection of HEP-1, single case reports", "type": "in vivo, human"}, "cell cultures": {"system": "cell cultures", "conditions": "R. Ataullakhanov et al. 2005; cited from earlier work"}, "[1]": {"system": "inflammatory cytokine production", "conditions": "cell cultures; cited from earlier work"}, "[2]": {"test": "Toxicity at high dosages (general statement)", "type": "in vivo", "conditions": "high dosages of 50 mg per kg of body weight per day or higher", "experimental": "The dosage of Ezrin peptide 1 and its analogues of the formula (I) is not particularly critical, as Ezrin peptide 1 and its analogues are not toxic even at high dosages of 50 mg per kg of body weight per day or higher. Preferably, Ezrin peptide 1 and its analogues are administered to an adult human in an amount of at least 0.05 milligrams per day (mg/d), in particular at least 0.1 mg/d, e.g. in an amount of 0.05 to 5 mg/d, in particular 0.1 to 2 mg/d or 0.1 to 1 mg/d or 0.1 to 0.5 mg/d. Typically, for parenteral administrations lower dosages will be required than for oral or rectal administration. To achieve a rapid relief of the symptoms of post-COVID-19 syndrome, it may also be reasonable to administer at least 0.5 mg per day or at least 1 mg per day, e.g. in the range of 0.5 to 5 mg/d, but in other cases a lower dosage may be suitable. It is also possible to start with a higher dosage, e. g. in the range of 0.5 to 5 mg/d, more preferably 0.5 to 3 mg/d and then continue with a lower dosage of e.g. 0.05 to 0.5 mg/d or 0.1 to 0.5 mg/day. A single administration of Ezrin peptide 1 and/or one of its analogues of the formula (I) may be sufficient to ameliorate or even cure the symptoms of a post-COVID-19 syndrome. […] Depending on the severity of the symptoms, this time period is typically in the range of 5 days to 10 weeks and in particular in the range of 10 days to 8 weeks."}}, "note": "No end group written: not given here."}
{"sequence": "TEKKRRETVEREKE [HEP-1, NH2_Thr-Glu-Lys-Lys-Arg-Arg-Glu-Thr-Val-Glu-Arg-Glu-Lys-Glu_COOH]", "values": [{"measurement": "final clinical outcome of long COVID", "setting": "LONG-COVID-19 symptoms; Example 1, person, HEP-1 0.2 mg s.c. per day 22 Jan. 2021 until Mar. 10 2021, assessed 10 Mar. 2021", "result": "complete recovery"}, {"measurement": "mental ability (short memory) and physical strength (walking distance), interim outcome", "setting": "LONG-COVID-19 symptoms; Example 1, person, HEP-1 0.2 mg s.c. per day from 22 Jan. 2021, assessed 29 Jan. 2021", "result": "remarkable improvement"}, {"measurement": "mental ability (short memory) and physical strength (walking distance), interim outcome", "setting": "LONG-COVID-19 symptoms; Example 2, person, ankylosis spondylitis, HEP-1 0.2 mg s.c. per day from 26 Feb. 2021, assessed 4 Mar. 2021", "result": "remarkable improvement"}, {"measurement": "final clinical outcome of long COVID", "setting": "LONG-COVID-19 symptoms; Example 2, person, HEP-1 0.2 mg s.c. per day 26 Feb. 2021 until Mar. 17 2021, assessed 17 Mar. 2021", "result": "complete recovery"}, {"measurement": "final clinical outcome of long COVID", "setting": "LONG-COVID-19 symptoms; Example 3, person, HEP-1 0.2 mg s.c. per day 29 Mar. 2021 until Apr. 24 2021, assessed 23 Apr. 2021", "result": "complete recovery"}, {"measurement": "mental ability (short memory) and physical strength (walking distance), interim outcome", "setting": "LONG-COVID-19 symptoms; Example 3, person, HEP-1 0.2 mg s.c. per day from 29 Mar. 2021, assessed 15 Apr. 2021", "result": "remarkable improvement"}, {"measurement": "final clinical outcome of long COVID (persisting fatigue syndrome)", "setting": "LONG-COVID-19 symptoms; Example 4, person, HEP-1 0.2 mg s.c. per day for 10 days", "result": "free of any symptoms"}, {"measurement": "final clinical outcome of long COVID (fatigue syndrome and cognitive disorder)", "setting": "LONG-COVID-19 symptoms; Example 5, person, HEP-1 0.2 mg s.c. per day from 26 Feb. 2021, assessed 12 Mar. 2021", "result": "free of any symptoms"}, {"measurement": "final clinical outcome of long COVID", "setting": "LONG-COVID-19 symptoms; Example 6, person, asthma, HEP-1 2 mg s.c. per day for 10 days, then 0.2 mg s.c. per day for 30 days, after 3 weeks of treatment", "result": "cured"}, {"measurement": "final clinical outcome of long COVID (fatigue, cognitive disorder, narcolepsy)", "setting": "LONG-COVID-19 symptoms; Example 7, person, HEP-1 0.2 mg s.c. per day, after 11 days of treatment", "result": "symptoms completely disappeared"}, {"measurement": "anti-viral effect in cell cultures", "setting": "cell cultures", "result": "shows an anti-viral effect"}, {"measurement": "production of pro- and inflammatory cytokins (e.g. IL-1, IL-6, TNF-alpha)", "setting": "[1]", "result": "reduces"}, {"measurement": "synthesis of alpha- and beta interferons", "setting": "[1]", "result": "induces"}, {"measurement": "toxicity", "setting": "[2]", "result": "not toxic"}]}
